Laboratory results taken from patent US20250114466A1, “ANTIFOLATE LINKER-DRUGS AND ANTIBODY-DRUG CONJUGATES” (BYONDIS B.V., priority 2021, published 2025).

Columns and labels:
Assay type in all cases: cell-based
Human tumor cell lines = assay: In vitro cell viability assays, free antifolate drugs, overall comparison; settings: for antifolate activity compared with talotrexin: Tables 1a-1d
Experimental: Human tumor cell lines SK-BR-3, SW-620, A-549, BT-474, Jurkat Clone E6-1, AU-565, and SK-OV-3 were obtained from American Type Culture Collection (Rockville, MD, USA). FaDu, BxPC-3, HeLa, MV4-11, and RAJI cell lines were obtained from Deutsche Sammlung von Mikroorganismen und Zellkulturen ([…], Germany). Jurkat NucLight Red cells were obtained from Essen BioScience Inc. (Ann Arbor, MI, USA). SK-BR-3 and SK-OV-3 cells were cultured in McCoys 5A medium (Lonza; Walkersville, MD, USA) supplemented with 10% v/w Fetal Bovine Serum (FBS), Heat-inactivated (HI) (Gibco-Life Technologies; Carlsbad, CA) and 80 U/mL Pen/Strep (Gibco-Life Technologies), at 37° C. in a humidified incubator under 5% CO2 atmosphere. SW-620 cells were similarly maintained in RPMI 1640 medium (Lonza), containing 10% v/w FBS HI and 80 U/mL Pen/Strep. A-549 cells were similarly maintained in F-12K Nutrient Mixture (1×) (Gibco-Life Technologies) media supplemented with 80 U/mL Pen/Strep and 5% v/w FBS, which was Qualified (Q) (Gibco-Life Technologies). BT-474 and AU-565 cells were similarly maintained in RPMI 1640 medium (Lonza), containing 10% v/w FBS, which was Qualified (Q) (Gibco-Life Technologies), and 80 U/mL Pen/Strep. Jurkat Clone E6-1, BxPC-3, HeLa, MV4-11, and RAJI cells were similarly maintained in RPMI 1640 medium (Lonza), containing 10% v/w FBS HI and 80 U/mL Pen/Strep. Jurkat NucLight Red cells were similarly maintained in RPMI 1640 medium (Lonza), containing 10% v/w FBS HI, 80 U/mL Pen/Strep and 0.5 μg/mL Puromycin (Gibco-Life Technologies). FaDu cells were cultured in EMEM medium (Lonza) supplemented with 10% v/w FBS HI (Gibco-Life Technologies), 1× GlutaMAX (Gibco-Life Technologies), and 80 U/mL Pen/Strep (Gibco-Life Technologies), at 37° C. in a humidified incubator under 5% CO2 atmosphere.
Cells in complete growth medium were plated in 96-well plates (90 μL/well) and incubated at 37° C., 5% CO2 at the following cell densities: 6500 SK-BR-3, 4000 SW-620, 2500 A-549, 10000 BT-474, 3000 Jurkat Clone E6-1, 5000 AU-565, 1250 FaDu, 1250 BxPC-3, 1000 HeLa, 7500 MV4-11, 1000 RAJI, 3000 Jurkat NucLight Red, and 4000 SK-OV-3 cells per well. After an overnight incubation, 10 serial log 10 dilutions of the free drugs were made in DMSO (Sigma-Aldrich). These free drug dose-response curves were 10-times further diluted in complete growth medium. For the ADCs according to the invention 10 serial log 10 dilutions were made in complete growth medium. 10 μL of a composition comprising a free drug or an ADC according to the invention was added to the assay plate (final DMSO content for free drugs was 1%). […] Cell viability was assessed after 6 days using a luminescent assay kit (CellTiter-Glo™ (CTG), Promega Corporation) according to the manufacturer's instructions. Percentage cell survival was calculated by dividing the measured luminescence for each free drug or ADC according to the concentration with the average mean of untreated cells (1% or 0.1% DMSO control (for free drugs) or 100% complete growth medium (for ADCs)) multiplied by 100.
Curves were fitted by non-linear regression using the sigmoidal dose-response equation with variable slope (four parameters) using curve-fitting software (GraphPad Prism, version 9.4.0 for Windows, GraphPad, San Diego, CA or Electronic Laboratory Notebook (ELN) add-in BioAssay, version 19.1.0.0218, Perkin Elmer, Waltham, MA). Relative IC50 values were calculated as the concentration that gives a response halfway between bottom and top of the curve, when using a 4-parameter logistic fit. Data were reported as mean IC50 value of at least one experiment performed in duplicate.

SK-BR-3 cells = assay: In vitro cell viability assay (CellTiter-Glo, 6 days), SK-BR-3; settings: Homo sapiens, SK-BR-3, 144 h, free antifolate drug, Table 1a
Experimental: (§1) FaDu, BxPC-3, HeLa, MV4-11, and RAJI cell lines were obtained from Deutsche Sammlung von Mikroorganismen und Zellkulturen ([…], Germany). Jurkat NucLight Red cells were obtained from Essen BioScience Inc. (Ann Arbor, MI, USA). SK-BR-3 and SK-OV-3 cells were cultured in McCoys 5A medium (Lonza; Walkersville, MD, USA) supplemented with 10% v/w Fetal Bovine Serum (FBS), Heat-inactivated (HI) (Gibco-Life Technologies; Carlsbad, CA) and 80 U/mL Pen/Strep (Gibco-Life Technologies), at 37° C. in a humidified incubator under 5% CO2 atmosphere. SW-620 cells were similarly maintained in RPMI 1640 medium (Lonza), containing 10% v/w FBS HI and 80 U/mL Pen/Strep. […]
(§2) After an overnight incubation, 10 serial log 10 dilutions of the free drugs were made in DMSO (Sigma-Aldrich). […] Cell viability was assessed after 6 days using a luminescent assay kit (CellTiter-Glo™ (CTG), Promega Corporation) according to the manufacturer's instructions. Percentage cell survival was calculated by dividing the measured luminescence for each free drug or ADC according to the concentration with the average mean of untreated cells (1% or 0.1% DMSO control (for free drugs) or 100% complete growth medium (for ADCs)) multiplied by 100. […]

A-549 cells = assay: In vitro cell viability assay (CellTiter-Glo, 6 days), A-549; settings: Homo sapiens, A549, 144 h, free antifolate drug, Table 1a
Experimental: Human tumor cell lines SK-BR-3, SW-620, A-549, BT-474, Jurkat Clone E6-1, AU-565, and SK-OV-3 were obtained from American Type Culture Collection (Rockville, MD, USA). FaDu, BxPC-3, HeLa, MV4-11, and RAJI cell lines were obtained from Deutsche Sammlung von Mikroorganismen und Zellkulturen ([…], Germany). Jurkat NucLight Red cells were obtained from Essen BioScience Inc. (Ann Arbor, MI, USA). […]
Cells in complete growth medium were plated in 96-well plates (90 μL/well) and incubated at 37° C., 5% CO2 at the following cell densities: 6500 SK-BR-3, 4000 SW-620, 2500 A-549, 10000 BT-474, 3000 Jurkat Clone E6-1, 5000 AU-565, 1250 FaDu, 1250 BxPC-3, 1000 HeLa, 7500 MV4-11, 1000 RAJI, 3000 Jurkat NucLight Red, and 4000 SK-OV-3 cells per well. […] Cell viability was assessed after 6 days using a luminescent assay kit (CellTiter-Glo™ (CTG), Promega Corporation) according to the manufacturer's instructions. Percentage cell survival was calculated by dividing the measured luminescence for each free drug or ADC according to the concentration with the average mean of untreated cells (1% or 0.1% DMSO control (for free drugs) or 100% complete growth medium (for ADCs)) multiplied by 100. […]

SW-620 cells = assay: In vitro cell viability assay (CellTiter-Glo, 6 days), SW-620; settings: Homo sapiens, SW-620, 144 h, free antifolate drug, Table 1a
Experimental: as §1, §2

Compound	antifolate activity compared with talotrexin (Human tumor cell lines)	further results
Nc1ccc(C(=O)NCCC[C@H](NC(=O)c2ccc(CCc3ccc4nc(N)nc(N)c4c3)cc2)C(=O)O)cc1 [XJ4, (S)-5-(4-Aminobenzamido)-2-(4-(2-(2,4-diaminoquinazolin-6-yl)ethyl)benzamido)pentanoic acid]	less active than talotrexin	–
Nc1ccc(C(=O)NCCC[C@H](NC(=O)c2ccc(NCc3ccc4nc(N)nc(N)c4c3Cl)cc2)C(=O)O)c(-c2nnn[nH]2)c1 [XT110, (S)-5-(4-Amino-2-(1H-tetrazol-5-yl)benzamido)-2-(4-(((2,4-diamino-5-chloroquinazolin-6-yl)methyl)amino)benzamido)pentanoic acid]	–	antifolate activity compared with XX35 (Human tumor cell lines; 5-chloroquinazoline-2,4-diamine instead of pteridine-2,4-diamine): strongly increased the antifolate activity
Nc1nc(N)c2nc(CNc3ccc(C(=O)N[C@@H](CCCNC(=O)c4ccccc4C(=O)O)C(=O)O)cc3)cnc2n1 [Talotrexin]	–	IC50 (SK-BR-3 cells): 1.83 nM; IC50 (A-549 cells): 1.7 nM; IC50 (SW-620 cells): 1.74 nM
CN(Cc1cnc2nc(N)nc(N)c2n1)c1ccc(C(=O)N[C@@H](CCCNC(=O)c2ccc(N)cc2)C(=O)O)cc1 [XX12, (S)-5-(4-aminobenzamido)-2-(4-(((2,4-diaminopteridin-6-yl)methyl)(methyl)amino)benzamido)pentanoic acid]	less active than talotrexin	–
Nc1ccc(C(=O)NCCC[C@H](NC(=O)c2ccc(CCc3cnc4nc(N)nc(N)c4n3)cc2)C(=O)O)cc1 [XX7, (S)-5-(4-Aminobenzamido)-2-(4-(2-(2,4-diaminopteridin-6-yl)ethyl)benzamido) pentanoic acid]	less active than talotrexin	–
[N-]=[N+]=Nc1ccc(C(=O)NCCC[C@H](NC(=O)c2ccc(CCc3cnc4nc(N)nc(N)c4n3)cc2)C(=O)O)cc1 [XX5, (S)-5-(4-Azidobenzamido)-2-(4-(2-(2,4-diaminopteridin-6-yl)ethyl)benzamido) pentanoic acid]	less active than talotrexin	–
Nc1ccc(C(=O)NCCC[C@H](NC(=O)c2ccc(NCc3cnc4nc(N)nc(N)c4n3)cc2)C(=O)O)cc1 [XT35, (S)-5-(4-Aminobenzamido)-2-(4-(((2,4-diaminopteridin-6-yl)methyl)amino)benzamido) pentanoic acid]	less active than talotrexin	–
